In PubChem BioAssay AID1963958 (Molecular Pharmacology Branch, DTP, NCI, 2024):
Blank lines part the entries; values can stand above or below the compound they belong to.

Test system: MDA-MB-231 multicell spheroids, viability
Test: Anticancer human tumor MDA-MB-231 cell line growth inhibition [PI3K];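 further: spheroids exposed to agents for seven days before reading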;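 on viability, T/C: percent of vehicle control luminescence with DMSO treated spheroids as 100%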
Details: for IC50: curve of first compound; for viability, T/C: stronger effect = lower value
Method in brief: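 Complex 3D spheroids (cancer cells + endothelial HUVEC + mesenchymal stem cells); drug pairs of targeted agent x inavolisib/alpelisib/duvelisib/copanlisib; half-log series from ~Cmax, max 10 microM if Cmax unknown; endpoint viability.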

[1] = second compound 0.00316 µM, first compound 0.000316 µM
[2] = second compound 0.00316 µM, first compound 0.001 µM
[3] = second compound 0.00316 µM, first compound 0.00316 µM
[4] = second compound 0.00316 µM, first compound 0.01 µM
[5] = second compound 0.00316 µM, first compound 0.0316 µM
[6] = second compound 0.00316 µM, first compound 0.1 µM
[7] = second compound 0.01 µM, first compound 0.000316 µM
[8] = second compound 0.01 µM, first compound 0.001 µM
[9] = second compound 0.01 µM, first compound 0.00316 µM
[10] = second compound 0.01 µM, first compound 0.01 µM
[11] = second compound 0.01 µM, first compound 0.0316 µM
[12] = second compound 0.01 µM, first compound 0.1 µM
[13] = second compound 0.0316 µM, first compound 0.000316 µM
[14] = second compound 0.0316 µM, first compound 0.001 µM
[15] = second compound 0.0316 µM, first compound 0.00316 µM
[16] = second compound 0.0316 µM, first compound 0.01 µM
[17] = second compound 0.0316 µM, first compound 0.0316 µM
[18] = second compound 0.0316 µM, first compound 0.1 µM
[19] = second compound 0.1 µM, first compound 0.000316 µM
[20] = second compound 0.1 µM, first compound 0.001 µM
[21] = second compound 0.1 µM, first compound 0.00316 µM
[22] = second compound 0.1 µM, first compound 0.01 µM
[23] = second compound 0.1 µM, first compound 0.0316 µM
[24] = second compound 0.1 µM, first compound 0.1 µM
[25] = second compound 0.316 µM, first compound 0.000316 µM
[26] = second compound 0.316 µM, first compound 0.001 µM
[27] = second compound 0.316 µM, first compound 0.00316 µM
[28] = second compound 0.316 µM, first compound 0.01 µM
[29] = second compound 0.316 µM, first compound 0.0316 µM
[30] = second compound 0.316 µM, first compound 0.1 µM
[31] = second compound 1 µM, first compound 0.000316 µM
[32] = second compound 1 µM, first compound 0.001 µM
[33] = second compound 1 µM, first compound 0.00316 µM
[34] = second compound 1 µM, first compound 0.01 µM
[35] = second compound 1 µM, first compound 0.0316 µM
[36] = second compound 1 µM, first compound 0.1 µM

IC50 (second compound 0.00316 µM): 79.4 nM
IC50 (second compound 0.01 µM): 37.3 nM
IC50 (second compound 0.0316 µM): 10.4 nM
IC50 (second compound 0.1 µM): < 0.316 nM
IC50 (second compound 0.316 µM): < 0.316 nM
IC50 (second compound 1 µM): < 0.316 nM
Compound: CC(=O)c1c(C)c2cnc(Nc3ccc(N4CCNCC4)cn3)nc2n(C2CCCC2)c1=O + COc1c(OCCCN2CCOCC2)ccc2c3n(c(=NC(=O)c4cnc(N)nc4)nc12)CCN3
viability, T/C [1]: 96.5%
viability, T/C [2]: 94.8%
viability, T/C [3]: 90.4%
viability, T/C [4]: 85.2%
viability, T/C [5]: 69.5%
viability, T/C [6]: 45%
viability, T/C [7]: 80.6%
viability, T/C [8]: 79.9%
viability, T/C [9]: 73.7%
viability, T/C [10]: 62.5%
viability, T/C [11]: 53.6%
viability, T/C [12]: 35.9%
viability, T/C [13]: 58.4%
viability, T/C [14]: 59.7%
viability, T/C [15]: 54.2%
viability, T/C [16]: 50.5%
viability, T/C [17]: 41.3%
viability, T/C [18]: 26.7%
viability, T/C [19]: 46.9%
viability, T/C [20]: 44.9%
viability, T/C [21]: 41.3%
viability, T/C [22]: 39.2%
viability, T/C [23]: 33.1%
viability, T/C [24]: 21.1%
viability, T/C [25]: 33.4%
viability, T/C [26]: 31%
viability, T/C [27]: 27.9%
viability, T/C [28]: 27.3%
viability, T/C [29]: 20.4%
viability, T/C [30]: 16.4%
viability, T/C [31]: 25%
viability, T/C [32]: 25%
viability, T/C [33]: 23.5%
viability, T/C [34]: 24%
viability, T/C [35]: 21.6%
viability, T/C [36]: 19.6%

IC50 (second compound 0.00316 µM): 46.8 nM
IC50 (second compound 0.01 µM): 19.5 nM
IC50 (second compound 0.0316 µM): 5.36 nM
IC50 (second compound 0.1 µM): < 0.316 nM
IC50 (second compound 0.316 µM): < 0.316 nM
IC50 (second compound 1 µM): < 0.316 nM
Compound: CC(C)n1nc(-c2ccc3oc(N)nc3c2)c2c(N)ncnc21 + COc1c(OCCCN2CCOCC2)ccc2c3n(c(=NC(=O)c4cnc(N)nc4)nc12)CCN3
viability, T/C [1]: 98.6%
viability, T/C [2]: 93.6%
viability, T/C [3]: 83.9%
viability, T/C [4]: 76.1%
viability, T/C [5]: 55.6%
viability, T/C [6]: 36.9%
viability, T/C [7]: 78.3%
viability, T/C [8]: 78.5%
viability, T/C [9]: 68.8%
viability, T/C [10]: 58.3%
viability, T/C [11]: 44.3%
viability, T/C [12]: 29.1%
viability, T/C [13]: 57.7%
viability, T/C [14]: 59.3%
viability, T/C [15]: 54.4%
viability, T/C [16]: 44.2%
viability, T/C [17]: 32.2%
viability, T/C [18]: 21.4%
viability, T/C [19]: 47%
viability, T/C [20]: 45.8%
viability, T/C [21]: 40.1%
viability, T/C [22]: 34.7%
viability, T/C [23]: 26.6%
viability, T/C [24]: 19.8%
viability, T/C [25]: 34.2%
viability, T/C [26]: 31.5%
viability, T/C [27]: 28.9%
viability, T/C [28]: 25.4%
viability, T/C [29]: 21.9%
viability, T/C [30]: 18.5%
viability, T/C [31]: 26%
viability, T/C [32]: 23.9%
viability, T/C [33]: 23.8%
viability, T/C [34]: 23%
viability, T/C [35]: 24.5%
viability, T/C [36]: 22.5%
